Results on 57 molecules are retold here after patent publication US20250197382A1, “KIF18A INHIBITOR” (WIGEN BIOMEDICINE TECHNOLOGY (SHANGHAI) CO., LTD., priority 2022, published 2025).

Some results are limits rather than exact numbers.

The assay deals with Recombinant human KIF18A (1-467His-tagged) protein (Homo sapiens (Human), UniProt Q8NI77). Briefly: KIF18A enzyme assay (microtubule-stimulated ATPase activity, ADP-Glo). In kind it is biochemical. The following applies: 30 nM KIF18A, ATP 75 μM, read-out: inhibitory activity against KIF18A IC50. In outline: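 Baculovirus-expressed human KIF18A (1-467, His-tagged; 30 nM) preincubated 15 min at room temperature with compound (22-point 2-fold series) in pH 7.5 Tris buffer containing 30 μg/mL pig microtubules and 1 μM paclitaxel.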
Sequence of Recombinant human KIF18A (1-467His-tagged) protein (Q8NI77 1-467): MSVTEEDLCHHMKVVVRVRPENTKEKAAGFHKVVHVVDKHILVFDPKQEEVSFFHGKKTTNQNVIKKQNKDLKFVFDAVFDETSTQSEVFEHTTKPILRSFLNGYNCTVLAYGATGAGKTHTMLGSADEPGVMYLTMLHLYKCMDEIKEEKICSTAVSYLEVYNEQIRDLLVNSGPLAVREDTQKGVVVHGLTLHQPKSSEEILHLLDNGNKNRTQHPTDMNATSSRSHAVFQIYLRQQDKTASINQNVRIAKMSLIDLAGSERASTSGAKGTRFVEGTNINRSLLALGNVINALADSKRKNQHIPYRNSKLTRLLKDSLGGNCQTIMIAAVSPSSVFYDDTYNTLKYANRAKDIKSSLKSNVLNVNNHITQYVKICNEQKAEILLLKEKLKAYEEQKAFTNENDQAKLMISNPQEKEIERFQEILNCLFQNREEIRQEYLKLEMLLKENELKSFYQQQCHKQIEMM
Sequence of Recombinant human KIF18A (1-467His-tagged) protein (P02550 whole entry partner): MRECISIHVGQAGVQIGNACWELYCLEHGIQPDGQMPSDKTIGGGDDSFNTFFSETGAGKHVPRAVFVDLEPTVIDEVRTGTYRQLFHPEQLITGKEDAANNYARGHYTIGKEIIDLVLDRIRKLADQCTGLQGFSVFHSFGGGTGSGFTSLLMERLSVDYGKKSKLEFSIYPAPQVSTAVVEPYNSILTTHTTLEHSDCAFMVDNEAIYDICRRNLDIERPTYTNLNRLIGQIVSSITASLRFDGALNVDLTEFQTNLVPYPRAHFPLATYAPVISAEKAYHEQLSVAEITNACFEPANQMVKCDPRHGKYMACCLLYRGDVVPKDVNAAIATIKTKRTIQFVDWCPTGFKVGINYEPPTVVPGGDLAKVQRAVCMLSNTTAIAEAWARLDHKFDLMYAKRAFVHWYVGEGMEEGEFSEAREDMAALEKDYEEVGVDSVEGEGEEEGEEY
Sequence of Recombinant human KIF18A (1-467His-tagged) protein (P02554 whole entry partner): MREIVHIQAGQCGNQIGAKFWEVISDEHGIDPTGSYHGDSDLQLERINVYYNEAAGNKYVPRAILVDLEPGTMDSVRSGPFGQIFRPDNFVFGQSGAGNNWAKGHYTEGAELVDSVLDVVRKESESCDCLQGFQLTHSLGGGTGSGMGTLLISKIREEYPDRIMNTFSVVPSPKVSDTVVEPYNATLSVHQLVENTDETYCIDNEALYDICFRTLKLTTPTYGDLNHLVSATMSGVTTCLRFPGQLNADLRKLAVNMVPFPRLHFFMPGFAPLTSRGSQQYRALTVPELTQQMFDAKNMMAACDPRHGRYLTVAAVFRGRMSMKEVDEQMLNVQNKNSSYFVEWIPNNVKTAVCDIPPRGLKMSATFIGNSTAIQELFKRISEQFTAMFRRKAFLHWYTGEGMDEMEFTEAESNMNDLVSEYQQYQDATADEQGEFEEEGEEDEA

On to `Cn1ccc2cc(NC(=O)c3ccc(NS(=O)(=O)CCO)cc3N3CCC4(CC3)CC4)cc(N3CC(F)(F)C3)c21` [Compound 388], for which the half-inhibitory concentration (IC50) is at most 100 nM.

As for `Cn1ccc2cc(NC(=O)c3ccc(NS(=O)(=O)CCO)cc3N3CCC4(CC3)CC4)cc(OCCC(F)(F)F)c21` [Compound 389], the IC50 is at most 100 nM.

With `Cn1ccc2cc(NC(=O)c3ccc(NS(=O)(=O)CCO)cc3N3CCC4(CC3)CC4)cc(N3CCC4(CC4)C3)c21` [Compound 390], the IC50 was at most 100 nM.

`Cn1ccc2cc(NC(=O)c3ccc(NS(=O)(=O)CCO)cc3N3CCC4(CC3)CC4)cc(OC3CCC3)c21` [Compound 391]: the IC50 is at most 100 nM.

On to `Cn1ccc2cc(NC(=O)c3ccc(NS(=O)(=O)CCO)cc3N3CCC4(CC3)CC4)cc(N3CCC(C)(F)C3)c21` (stereo not drawn) [Compound 392], for which the IC50 is at most 100 nM.

With `Cn1ccc2cc(NC(=O)c3ccc(NS(=O)(=O)CCO)cc3N3CCC4(CC3)CC4)cc(N3CCC(F)CC3)c21` [Compound 393], the IC50 was at most 100 nM.

As to `Cn1ccc2cc(NC(=O)c3ccc(NS(=O)(=O)CCO)cc3N3CCC4(CC3)CC4)cc(N3CC4CC4C3)c21` (stereo not drawn) [Compound 394], the IC50 was at most 100 nM.

Regarding `Cn1ccc2cc(NC(=O)c3ccc(NS(=O)(=O)CCO)cc3N3CCC4(CC3)CC4)cc(NC(C)(C)CO)c21` [Compound 395], the half-maximal inhibitory concentration (IC50) is at most 100 nM.

Consider `Cn1ccc2cc(NC(=O)c3ccc(NS(=O)(=O)CCO)cc3N3CCC4(CC3)CC4)cc(N3CCOCC3)c21` [Compound 396], for which the IC50 is at most 100 nM.

Regarding `C[C@@H](CO)S(=O)(=O)Nc1ccc(C(=O)Nc2cc(N3CCC(F)(F)CC3)c3c(ccn3C)c2)c(N2CCC3(CC2)CC3)c1` [Compound 397], the IC50 was at most 100 nM.

With `C[C@H](CO)S(=O)(=O)Nc1ccc(C(=O)Nc2cc(N3CCC(F)(F)CC3)c3c(ccn3C)c2)c(N2CCC3(CC2)CC3)c1` [Compound 398], the IC50 was at most 100 nM.

On to `C[C@@H]1CN(c2cc(NC(=O)c3ccc(NS(=O)(=O)[C@@H](C)CO)cc3N3CCC4(CC3)CC4)cc3ccn(C)c23)CCO1` [Compound 399], for which the IC50 was at most 100 nM.

For the molecule `C[C@@H]1CN(c2cc(NC(=O)c3ccc(NS(=O)(=O)[C@H](C)CO)cc3N3CCC4(CC3)CC4)cc3ccn(C)c23)CCO1` [Compound 400], the IC50 was at most 100 nM.

On to `Cn1ccc2cc(NC(=O)c3ccc(S(=O)(=O)NCCO)cc3N3CCC4(CC3)CC4)cc(N3CCC(F)(F)CC3)c21` [Compound 401], for which the IC50 was at most 100 nM.

On to `C[C@@H]1CN(c2cc(NC(=O)c3ccc(S(=O)(=O)NCCO)cc3N3CCC4(CC3)CC4)cc3ccn(C)c23)CCO1` [Compound 402], for which the IC50 was at most 100 nM.

As for `C[C@H]1CN(c2cc(NC(=O)c3ccc(S(=O)(=O)NCCO)cc3N3CCC4(CC3)CC4)cc3ccn(C)c23)CCO1` [Compound 403], the IC50 was at most 100 nM.

For `Cn1ccc2cc(NC(=O)c3ccc(S(=O)(=O)NCCO)cc3N3CCC4(CC3)CC4)cc(N3CC(F)(F)C3)c21` [Compound 404], the IC50 was at most 100 nM.

Regarding `Cn1ccc2cc(NC(=O)c3ccc(S(=O)(=O)NCCO)cc3N3CCC4(CC3)CC4)cc(OCCC(F)(F)F)c21` [Compound 405], the concentration for half-maximal inhibition (IC50) was at most 100 nM.

Take `Cn1ccc2cc(NC(=O)c3ccc(S(=O)(=O)NCCO)cc3N3CCC4(CC3)CC4)cc(N3CCC4(CC4)C3)c21` [Compound 406]: the IC50 is at most 100 nM.

For the molecule `Cn1ccc2cc(NC(=O)c3ccc(S(=O)(=O)NCCO)cc3N3CCC4(CC3)CC4)cc(OC3CCC3)c21` [Compound 407], the IC50 is at most 100 nM.

In the case of `Cn1ccc2cc(NC(=O)c3ccc(S(=O)(=O)NCCO)cc3N3CCC4(CC3)CC4)cc(N3CCC(C)(F)C3)c21` (stereo not drawn) [Compound 408], the IC50 is at most 100 nM.

With `Cn1ccc2cc(NC(=O)c3ccc(S(=O)(=O)NCCO)cc3N3CCC4(CC3)CC4)cc(N3CCC(F)CC3)c21` [Compound 409], the IC50 was at most 100 nM.

`Cn1ccc2cc(NC(=O)c3ccc(S(=O)(=O)NCCO)cc3N3CCC4(CC3)CC4)cc(N3CC4CC4C3)c21` (stereo not drawn) [Compound 410]: the IC50 was at most 100 nM.

For the molecule `Cn1ccc2cc(NC(=O)c3ccc(S(=O)(=O)NCCO)cc3N3CCC4(CC3)CC4)cc(NC(C)(C)CO)c21` [Compound 411], the IC50 is at most 100 nM.

Regarding `Cn1ccc2cc(NC(=O)c3ccc(S(=O)(=O)NCCO)cc3N3CCC4(CC3)CC4)cc(N3CCOCC3)c21` [Compound 412], the IC50 was at most 100 nM.

As for `C[C@@H](CO)NS(=O)(=O)c1ccc(C(=O)Nc2cc(N3CCC(F)(F)CC3)c3c(ccn3C)c2)c(N2CCC3(CC2)CC3)c1` [Compound 413], the half-maximal inhibitory concentration (IC50) was at most 100 nM.

On to `C[C@H](CO)NS(=O)(=O)c1ccc(C(=O)Nc2cc(N3CCC(F)(F)CC3)c3c(ccn3C)c2)c(N2CCC3(CC2)CC3)c1` [Compound 414], for which the concentration for half-maximal inhibition (IC50) is at most 100 nM.

Turning to `C[C@@H]1CN(c2cc(NC(=O)c3ccc(S(=O)(=O)N[C@@H](C)CO)cc3N3CCC4(CC3)CC4)cc3ccn(C)c23)CCO1` [Compound 415], the IC50 is at most 100 nM.

As for `C[C@H](CO)NS(=O)(=O)c1ccc(C(=O)Nc2cc(N3CCO[C@H](C)C3)c3c(ccn3C)c2)c(N2CCC3(CC2)CC3)c1` [Compound 416], the IC50 was at most 100 nM.

Turning to `Cn1ccc2cc(C(=O)Nc3ccc(NS(=O)(=O)CCO)cc3N3CCC4(CC3)CC4)cc(N3CCC(F)(F)CC3)c21` [Compound 417], the 50% inhibitory concentration (IC50) is at most 100 nM.

Take `C[C@@H]1CN(c2cc(C(=O)Nc3ccc(NS(=O)(=O)CCO)cc3N3CCC4(CC3)CC4)cc3ccn(C)c23)CCO1` [Compound 418]: the IC50 was at most 100 nM.

Consider `C[C@H]1CN(c2cc(C(=O)Nc3ccc(NS(=O)(=O)CCO)cc3N3CCC4(CC3)CC4)cc3ccn(C)c23)CCO1` [Compound 419], for which the half-maximal inhibitory concentration (IC50) is at most 100 nM.

For the molecule `Cn1ccc2cc(C(=O)Nc3ccc(NS(=O)(=O)CCO)cc3N3CCC4(CC3)CC4)cc(N3CC(F)(F)C3)c21` [Compound 420], the IC50 is at most 100 nM.

For `Cn1ccc2cc(C(=O)Nc3ccc(NS(=O)(=O)CCO)cc3N3CCC4(CC3)CC4)cc(OCCC(F)(F)F)c21` [Compound 421], the IC50 is at most 100 nM.

As for `Cn1ccc2cc(C(=O)Nc3ccc(NS(=O)(=O)CCO)cc3N3CCC4(CC3)CC4)cc(N3CCC4(CC4)C3)c21` [Compound 422], the IC50 was at most 100 nM.

As for `Cn1ccc2cc(C(=O)Nc3ccc(NS(=O)(=O)CCO)cc3N3CCC4(CC3)CC4)cc(OC3CCC3)c21` [Compound 423], the IC50 was at most 100 nM.

For `Cn1ccc2cc(C(=O)Nc3ccc(NS(=O)(=O)CCO)cc3N3CCC4(CC3)CC4)cc(N3CCC(C)(F)C3)c21` (stereo not drawn) [Compound 424], the IC50 was at most 100 nM.

As to `Cn1ccc2cc(C(=O)Nc3ccc(NS(=O)(=O)CCO)cc3N3CCC4(CC3)CC4)cc(N3CCC(F)CC3)c21` [Compound 425], the IC50 is at most 100 nM.

In the case of `Cn1ccc2cc(C(=O)Nc3ccc(NS(=O)(=O)CCO)cc3N3CCC4(CC3)CC4)cc(N3CC4CC4C3)c21` (stereo not drawn) [Compound 426], the IC50 was at most 100 nM.

Regarding `Cn1ccc2cc(C(=O)Nc3ccc(NS(=O)(=O)CCO)cc3N3CCC4(CC3)CC4)cc(NC(C)(C)CO)c21` [Compound 427], the IC50 was at most 100 nM.

With `Cn1ccc2cc(C(=O)Nc3ccc(NS(=O)(=O)CCO)cc3N3CCC4(CC3)CC4)cc(N3CCOCC3)c21` [Compound 428], the IC50 is at most 100 nM.

Take `C[C@@H](CO)S(=O)(=O)Nc1ccc(NC(=O)c2cc(N3CCC(F)(F)CC3)c3c(ccn3C)c2)c(N2CCC3(CC2)CC3)c1` [Compound 429]: the IC50 is at most 100 nM.

As for `C[C@H](CO)S(=O)(=O)Nc1ccc(NC(=O)c2cc(N3CCC(F)(F)CC3)c3c(ccn3C)c2)c(N2CCC3(CC2)CC3)c1` [Compound 430], the IC50 is at most 100 nM.

For `C[C@@H]1CN(c2cc(C(=O)Nc3ccc(NS(=O)(=O)[C@@H](C)CO)cc3N3CCC4(CC3)CC4)cc3ccn(C)c23)CCO1` [Compound 431], the IC50 is at most 100 nM.

For `C[C@@H]1CN(c2cc(C(=O)Nc3ccc(NS(=O)(=O)[C@H](C)CO)cc3N3CCC4(CC3)CC4)cc3ccn(C)c23)CCO1` [Compound 432], the IC50 was at most 100 nM.

On to `Cn1ccc2cc(C(=O)Nc3ccc(S(=O)(=O)NCCO)cc3N3CCC4(CC3)CC4)cc(N3CCC(F)(F)CC3)c21` [Compound 433], for which the IC50 is at most 100 nM.

As for `C[C@@H]1CN(c2cc(C(=O)Nc3ccc(S(=O)(=O)NCCO)cc3N3CCC4(CC3)CC4)cc3ccn(C)c23)CCO1` [Compound 434], the half-inhibitory concentration (IC50) is at most 100 nM.

With `C[C@H]1CN(c2cc(C(=O)Nc3ccc(S(=O)(=O)NCCO)cc3N3CCC4(CC3)CC4)cc3ccn(C)c23)CCO1` [Compound 435], the IC50 is at most 100 nM.

On to `Cn1ccc2cc(C(=O)Nc3ccc(S(=O)(=O)NCCO)cc3N3CCC4(CC3)CC4)cc(N3CC(F)(F)C3)c21` [Compound 436], for which the half-maximal inhibitory concentration (IC50) is at most 100 nM.

As to `Cn1ccc2cc(C(=O)Nc3ccc(S(=O)(=O)NCCO)cc3N3CCC4(CC3)CC4)cc(OCCC(F)(F)F)c21` [Compound 437], the IC50 was at most 100 nM.

On to `Cn1ccc2cc(C(=O)Nc3ccc(S(=O)(=O)NCCO)cc3N3CCC4(CC3)CC4)cc(N3CCC4(CC4)C3)c21` [Compound 438], for which the IC50 was at most 100 nM.

Regarding `Cn1ccc2cc(C(=O)Nc3ccc(S(=O)(=O)NCCO)cc3N3CCC4(CC3)CC4)cc(OC3CCC3)c21` [Compound 439], the concentration for half-maximal inhibition (IC50) is at most 100 nM.

Take `Cn1ccc2cc(C(=O)Nc3ccc(S(=O)(=O)NCCO)cc3N3CCC4(CC3)CC4)cc(N3CCC(C)(F)C3)c21` (stereo not drawn) [Compound 440]: the IC50 was at most 100 nM.

Regarding `Cn1ccc2cc(C(=O)Nc3ccc(S(=O)(=O)NCCO)cc3N3CCC4(CC3)CC4)cc(N3CCC(F)CC3)c21` [Compound 441], the IC50 is at most 100 nM.

For the molecule `Cn1ccc2cc(C(=O)Nc3ccc(S(=O)(=O)NCCO)cc3N3CCC4(CC3)CC4)cc(N3CC4CC4C3)c21` (stereo not drawn) [Compound 442], the IC50 was at most 100 nM.

Take `Cn1ccc2cc(C(=O)Nc3ccc(S(=O)(=O)NCCO)cc3N3CCC4(CC3)CC4)cc(NC(C)(C)CO)c21` [Compound 443]: the IC50 was at most 100 nM.

For the molecule `Cn1ccc2cc(C(=O)Nc3ccc(S(=O)(=O)NCCO)cc3N3CCC4(CC3)CC4)cc(N3CCOCC3)c21` [Compound 444], the IC50 was at most 100 nM.
